Experimental data reported in patent publication US20130252890A1, “6,7-DIHYDRO-5H-BENZO[7]ANNULENE DERIVATIVES, PROCESS FOR PREPARATION THEREOF, PHARMACEUTICAL PREPARATIONS COMPRISING THEM, AND THE USE THEREOF FOR PRODUCTION OF MEDICAMENTS” (BAYER INTELLECTUAL PROPERTY GMBH, priority 2010, published 2013).
Where a name gives a salt, the structure may show the parent alone.

How the values were obtained:
oestrogen receptor (ER) = molecular target: T1, oestrogen receptor (ER) (Homo sapiens, UniProt P03372); assay: Anti-oestrogenic action in MVLN cells (inhibition of estradiol-induced luciferase); format: cell-based; conditions: inhibition of estradiol-induced luciferase signal, value of Ex. 44 is a mean value, read-out: Antioestrogenic action in vitro: MVLN transactivation antagonism IC50
T1 construct: These MVLN cells express, along with the functional oestrogen receptor (ER), a reporter construct; endogenous in cells; host or cells: MVLN cells (MCF7 derivative carrying a luciferase reporter construct)
T1 sequence (P03372 1-595): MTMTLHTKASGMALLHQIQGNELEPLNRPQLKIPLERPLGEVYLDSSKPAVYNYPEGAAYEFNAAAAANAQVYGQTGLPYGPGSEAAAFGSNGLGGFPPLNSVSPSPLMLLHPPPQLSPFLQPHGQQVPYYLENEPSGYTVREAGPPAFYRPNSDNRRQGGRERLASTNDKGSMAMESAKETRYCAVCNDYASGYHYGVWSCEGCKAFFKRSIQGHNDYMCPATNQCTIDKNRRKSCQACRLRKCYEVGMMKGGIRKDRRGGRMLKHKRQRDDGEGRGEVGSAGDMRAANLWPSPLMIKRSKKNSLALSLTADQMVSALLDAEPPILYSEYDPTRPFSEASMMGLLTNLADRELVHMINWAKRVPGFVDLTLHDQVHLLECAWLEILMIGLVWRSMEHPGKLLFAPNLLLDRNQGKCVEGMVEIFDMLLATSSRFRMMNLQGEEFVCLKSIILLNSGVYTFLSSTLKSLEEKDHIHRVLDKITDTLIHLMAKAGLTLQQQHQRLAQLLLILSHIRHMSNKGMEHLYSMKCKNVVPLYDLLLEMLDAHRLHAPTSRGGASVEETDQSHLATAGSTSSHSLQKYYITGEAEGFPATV
Procedure, shortened: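 Inhibition of estradiol-driven luciferase expression was measured with compounds co-applied alongside oestrogen. Reporter system: MCF7-derived MVLN cells expressing endogenous functional ER and an ER-responsive luciferase construct.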

uterus [1] = assay: Oestrogenic action - uterus growth test in the infantile rat; format: in vivo; conditions: sc, 72 h, s.c. 3 days, relative to E2 0.3 μg/animal, read-out: maximum uterotropic action (% estradiol action) in the dose range from 0.03 to 3 mg/kg; for Emax at 0.3 mg/kg: maximum at dose 0.3 mg/kg
Protocol: Both the uterus and the vagina show a weight increase that is dependent on oestrogenic efficacy, in infantile animals when they are treated with a substance with oestrogenic action. In the uterus, under oestrogenic action there is also proliferation and increase in height of the luminal epithelium.
Immature, intact rats (n=5-6 animals/group; body weight 40-50 g) receive the substance s.c. for 3 days (d1-d3). On day 4 (d4) the animals are killed with CO2. The uteri are removed and weighed. For histological assessment, a piece of uterus, preferably a uterine horn, is fixed in formaldehyde and embedded in paraffin. The stimulation of the organ weights (relative to mg/100 g body weight) and the height of the epithelium are shown as percentage stimulation in comparison with the reference compound 17β-estradiol (E2). (Substitution dose of E2 0.3 μg/animal).

uterus [2] = assay: Anti-uterus growth test in the adult rat; conditions: sc, 72 h; ovariectomized adult rat, s.c. 3 days with 1.5 μg/kg/day 17β-estradiol; inhibition of uterus growth; value of 44 is a mean of two measurements; read-out: anti-oestrogenic activity in vivo in % at a dose of 0.3 mg/kg (rat)
Description: The uterus of oestrogen-substituted rats can be used as a test model for detecting a direct action of substances with anti-oestrogenic properties. The parameter of oestrogenic action is estradiol-induced uterus growth in rats, which is inhibited by simultaneous administration of a substance with anti-oestrogenic action. The experimental animals (n=5-6 animals/group) were ovariectomized before the start of the test, to rule out the influence of endogenous oestrogens. After a phase of 6 to 10 days, the test substances are administered s.c. on 3 consecutive days (d1-d3) in combination with a substitution dose of 1.5 μg/kg/day 17β-estradiol. 17β-estradiol alone serves as positive control, and the excipients serve as negative control. On day 4 (d4) the animals are killed, and the uteri and vaginae are removed and weighed. The organ weights are converted to mg/100 g body weight, then the mean value and the standard deviation are calculated for each dosage. The inhibition of uterus growth induced by 17β-estradiol is shown as percentage inhibition.

[3] = test system: ovarian estradiol synthesis; assay: Stimulation of ovarian oestrogen synthesis (HPG axis) in intact adult rats; format: in vivo, rat; conditions: hormonally intact adult rats, daily for 10 days; quotient of peripheral estradiol values after and before treatment
Description: The clinical use both of pure anti-oestrogens and of various SERMs for the treatment of premenopausal women is limited by their property of stimulating the ovaries through activation of the hypothalamic-pituitary-gonadal axis (HPG axis), which leads to the increase in peripheral estradiol levels (Palomba, S., Orio, F., Jr., Morelli, M., Russo, T., Pellicano, M., Zupi, E., Lombardi, G., Nappi, C., Panici, P. L., and Zullo, F. (2002). Raloxifene administration in premenopausal women with uterine leiomyomas: a pilot study. J Clin Endocrinol Metab 87, 3603-3608). This stimulation of the HPG axis is associated with penetration of the blood-brain barrier and penetration of the brain. To investigate the ovary-stimulating properties of the claimed pharmacological compounds, hormonally intact adult rats were treated with the substances daily for a period of 10 days. The study end point is the quotient of peripheral estradiol values after and before treatment.

SMILES	IC50 (oestrogen receptor (ER))	Emax at 0.3 mg/kg (uterus [1])	inhibition in vivo at 0.3 mg/kg (uterus [2])	Stimulation of ovarian oestrogen synthesis: factor at a dose of 3 mg/kg rat [3]	Emax at 0.1 mg/kg (uterus [1]; maximum at dose 0.1 mg/kg)
CN(CCCCCCC1=C(c2ccc(F)cc2)CCCc2cc(O)ccc21)CCCCS(=O)(=O)C1CCC(F)(F)CC1 [Example 122, 9-{6-[{4-[(4,4-difluorocyclohexyl)sulphonyl]butyl}(methyl)amino]hexyl}-8-(4-fluorophenyl)-6,7-dihydro-5H-benzo[7]annulen-3-ol]	6 nM	7%	52%	2.4	
CN(CCCCCCC1=C(c2ccc(F)cc2)CCCc2cc(O)ccc21)CCCCS(=O)(=O)CCCC(F)(F)C(F)(F)F [Example 114, 8-(4-fluorophenyl)-9-[6-(methyl{4-[(4,4,5,5,5-pentafluoropentyl)sulphonyl]butyl}amino)hexyl]-6,7-dihydro-5H-benzo[7]annulen-3-ol]	10 nM		49%	1.4	
CN(CCCCCCC1=C(c2cccc(F)c2)CCCc2cc(O)ccc21)CCCCS(=O)(=O)CCCC(F)(F)C(F)(F)F [Example 124, 8-(3-fluorophenyl)-9-[6-(methyl{4-[(4,4,5,5,5-pentafluoropentyl)sulphonyl]butyl}amino)hexyl]-6,7-dihydro-5H-benzo[7]annulen-3-ol]	13 nM		67%	2.0	
CN(CCCCCCC1=C(c2ccc(F)cc2)CCCc2cc(O)ccc21)CCCCS(=O)(=O)CCC(F)(F)F [Example 51, 8-(4-Fluorophenyl)-9-[6-(methyl{4-[(3,3,3-trifluoropropyl)sulphonyl]butyl}amino)hexyl]-6,7-dihydro-5H-benzo[7]annulen-3-ol]	30 nM		59%		22%
CN(CCCCCCC1=C(c2ccc(F)cc2)CCCc2cc(O)ccc21)CCCS(=O)(=O)CCCC(F)(F)F [Example 117, 8-(4-fluorophenyl)-9-[6-(methyl{3-[(4,4,4-trifluorobutyl)sulphonyl]propyl}amino)hexyl]-6,7-dihydro-5H-benzo[7]annulen-3-ol]	18 nM	18%	65%	2.1	
CN(CCCCCCC1=C(c2ccc(F)cc2)CCCc2cc(O)ccc21)CCCS(=O)(=O)CC1CCC(F)(F)CC1 [Example 123, 9-{6-[(3-{[(4,4-difluorocyclohexyl)methyl]sulphonyl}propyl)(methyl)amino]hexyl}-8-(4-fluorophenyl)-6,7-dihydro-5H-benzo[7]annulen-3-ol]	13 nM	8%	56%	2.5	
O=C(c1ccc(OCCN2CCCCC2)cc1)c1c(-c2ccc(O)cc2)sc2cc(O)ccc12 [Raloxifene hydrochloride, Raloxifene, reference compound]				3.1	
CN(CCCCCCC1=C(c2ccc(F)cc2)CCCc2cc(O)ccc21)CCCS(=O)(=O)CCCCC(F)(F)F [Example 80, 8-(4-Fluorophenyl)-9-[6-(methyl{3-[(5,5,5-trifluoropentyl)sulphonyl]propyl}amino)hexyl]-6,7-dihydro-5H-benzo[7]annulen-3-ol]	8 nM		59%	2.3	
